Experimental data reported in US20250057979A1, “CARDIAC CALCIUM HANDLING MACHINERY REMODELED IN FRIEDREICH'S ATAXIA” (University of South Florida, priority 2023, published 2025).

Key:
[1] = test system: ventricular myocytes from FXN-KO and FXN-WT mice; assay: Oxygen consumption rate (OCR), XFp24 Cell Mito Stress Test (Agilent Seahorse); format: cell-based, mouse; conditions: isolated ventricular myocytes
Experimental: To investigate how mitochondrial respiration was affected in FA, OCR was measured herein using XFp24 Cell Mito Stress Test (Catalog #B05423; Agilent Seahorse). One day prior to the experiment, XFp24 cell culture plates were coated with gelatin/fibronectin at 37° C. Ventricular myocytes were enzymatically isolated from FXN-KO and FXN-WT mice. We dissociated myocytes in DMEM medium (Seahorse Bioscience), supplemented with 1 mM pyruvate, 2 mM glutamine, and 10 mM D-glucose. We plated 2500 myocytes/well into 24 well seahorse plates for 10 min. OCR were measured using the Seahorse Bioscience XF24 Extracellular Flux Analyzer (Seahorse Bioscience). Measurements were taken as the cells were incubated sequentially under four conditions: 1) basal levels were measured with no additives; 2) oligomycin (1.5 μM) was added to inhibit ATP synthase and OXPHOS, showing glycolysis alone reversibly; 3) FCCP (1 μM), a mitochondrial uncoupler, was added to induce maximal respiration; and 4) Antimycin A (10 μM), a Complex III inhibitor, was added to obtain non-mitochondrial oxygen consumption background. The Seahorse software was used to extract the results and plotted them using GraphPad Prism. OCR was normalized to cell number per well.

[2] = test system: left ventricular myocytes from FXN-WT and FXN-KO; conditions: 10 μM FCCP added after 15 min of time-dependent recording over 22 min; FXN-WT and FXN-KO cardiomyocytes
Experimental: The mitochondrial membrane potential (ΔΨm) was measured using tetramethyl rhodamine methyl ester (TMRM) dye. Left ventricular myocytes from the FXN-WT and FXN-KO were plated in an eight-well confocal chamber (LAB-TEK, DK, Denmark; Catalog #155409,) for 20 minutes, and cells were incubated with TMRM (10 nmol/L; Invitrogen; Catalog #T668) for 20 minutes in Tyrode solution at 37° C. and washed two times with Tyrode solution. After incubation with the dye, live cells were imaged for 20 min in 2 min intervals on a confocal microscope (Olympus-IX) using a 63X-oil objective. […] Confocal settings were identical for FXN-WT and the FXN-KO myocytes.

`CC[C@H]1/C=C/C=C/C[C@@H](C)[C@H](O)[C@@](C)(O)C(=O)[C@@H](C)[C@H](O)[C@@H](C)C(=O)[C@@H](C)[C@H](O)[C@@H](C)/C=C/C(=O)O[C@@H]2[C@H](C)[C@H](CC1)O[C@]1(CC[C@H](C)[C@H](C[C@@H](C)O)O1)[C@H]2C` [Oligomycin, oligomycin] was tested, and the “OCR after injection of oligomycin” value ([1]; oligomycin 1.5 μM) was “decreased”.
For Antimycin A, the “OCR after injection of antimycin A” value ([1]; Antimycin A 10 μM) was “reduced”.
With `N#CC(C#N)=NNc1ccc(OC(F)(F)F)cc1` [FCCP, carbonyl cyanide 4-(trifluoromethoxy) phenylhydrazone] the “ΔΨm (TMRM fluorescence) after addition of FCCP” value [2] was “decreased” and the “OCR after injection of FCCP” value ([1]; FCCP 1 μM) was “increased OCR to maximal levels”.
